Data set [1] deals with PD1-ss+10aa/Gaussia Luciferase. Briefly: Dox-Induced PD1-ss-Gluc Assay. The format is cell-based. The conditions noted are these: 24 hr Dox induction, 293FRT/TO cells, read-out: 24 hr Dox Inducible PD1ssGluc 293FRT/TO: Mean IC50. The gist of the method: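 Stable Flp-In 293 T-REx cells carried a doxycycline-inducible construct of Gaussia luciferase fused to the PD1 signal sequence plus 10 amino acids. Cells were plated the day before, then treated with compound dilutions in DMSO/media containing doxycycline at 37 °C, 5% CO2.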

The test system of data set [2] is TNFα-FL/Gaussia Luciferase. Briefly: Dox Induced TNFα-FL-Gluc Assay. The class given is cell-based. The conditions noted are these: for IC50: 24 hr Dox induction, 293FRT/TO cells, read-out: 24 hr Dox Inducible TNFaFLGluc 293FRT/TO: Mean IC50; for 24 hr Dox Inducible TNFaFLGluc 293FRT/TO: TNF/PD1: ratio of TNFaFLGluc IC50 to PD1ssGluc IC50. In short, it runs like this: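 Compound was added with doxycycline to cells plated a day earlier, incubating at 37° C under 5% CO2. The reporter line is 293 T-REx expressing a TNFα (1-233)–Gaussia luciferase fusion under tetracycline-regulated control.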

The test system of data set [3] is HER3-ss+4aa/Gaussia Luciferase. Briefly: Dox-Induced Her3-ss-Gluc Assay. The format is cell-based. The conditions noted are these: 24 hr Dox induction, 293FRT/TO cells, read-out: 24 hr Dox Inducible Her3(ss + 4)Gluc 293FRT/TO: Mean IC50. In short, it runs like this: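 Compounds were diluted in DMSO/media containing doxycycline. They were added to Flp-In 293 T-REx cells plated the previous day, then incubated at 37 °C under 5% CO2. These cells stably express, under T-REx control, Gaussia luciferase fused to the HER3 signal sequence plus 4 amino acids.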

The test system of data set [4] is IL-2-FL/Gaussia Luciferase. Briefly: Dox Induced IL2-FL-Gluc Assay. The conditions noted are these: for IC50: 24 hr Dox induction, 293FRT/TO cells, read-out: 24 hr Dox Inducible IL2FLGluc 293FRT/TO: Mean IC50; for 24 hr Dox Inducible IL2FLGluc 293FRT/TO: IL2/PD1: ratio of IL2FLGluc IC50 to PD1ssGluc IC50. The class given is cell-based. In short, it runs like this:
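Compounds in DMSO/medium with doxycycline were applied to a 293 T-REx stable line expressing an IL-2 (aa 1-153)–Gaussia luciferase fusion under tetracycline-regulated control, cells seeded one day earlier; incubation at 37 °C, 5% CO2. Structures drawn without stereochemistry were tested as stereoisomer mixtures.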

Data set [5] concerns multiple myeloma cell line NCI-H929. Briefly: H929 Cell Viability Assay. The class given is cell-based, human. The conditions noted are these: Homo sapiens, NCI-H929, 48 h, NCI-H929 cells, Celltiter-Glo. In short, it runs like this:
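Luminescent CellTiter-Glo read-out of viability after a 48 h exposure (37° C, 5% CO2) of NCI-H929 myeloma cells to compound dilutions in RPMI 1640 plus 10% FBS. Data for structures drawn without stereochemistry refer to stereoisomer mixtures.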
In general terms: ATP-based viability assays read luminescence as a measure of living cells.

Data set [6] relates to multiple myeloma cell line U266B1. Briefly: U266 Cell Viability Assay. The class given is cell-based, human. The conditions noted are these: Homo sapiens, U-266, 48 h, U266B1 cells, Celltiter-Glo. In short, it runs like this: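 CellTiter-Glo luminescence was read after a 48 h compound exposure (37 °C, 5% CO2) of human U266B1 myeloma cells grown in 10% FBS-supplemented RPMI 1640. Data for structures shown without defined stereochemistry refer to stereoisomer mixtures.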

A short description of data set [7]: Liver Microsome Stability Assay (rat). The conditions noted are these: rat liver microsomes, with NADPH, 1.0 uM compound.
Experimental: (§1) Stability of a compound was assessed in the presence of liver microsomes from various sources—mouse, rat, monkey and human liver microsomes. 1.0 uM compound, 0.4% DMSO in 0.1 M Potassium Phosphate with 1.0 mg/mL liver microsomes, were incubated at 37° C. with or without 1 mM NADPH. The samples were quenched at 0, and 30 minutes.
Data set [8] is described as follows: Liver Microsome Stability Assay (mouse). The conditions noted are these: mouse liver microsomes, with NADPH, 1.0 uM compound.
Experimental: as §1
Data set [9] in a line: Liver Microsome Stability Assay (human). The conditions noted are these: human liver microsomes, with NADPH, 1.0 uM compound.
Experimental: as §1
A short description of data set [10]: Liver Microsome Stability Assay (monkey). The conditions noted are these: monkey liver microsomes, with NADPH, 1.0 uM compound. A general note: Liver microsomes are a subcellular fraction often used to study metabolism.
Experimental: as §1
Setting [11] is: '<=>' given where both are I.A.

Each structure is given as a SMILES string. Read-outs that look alike come from different tables or passages of the source.

Take `O=C(Nc1nc(C2C3CN(c4ccccc4)CC32)cs1)c1cccn1Cc1ccncc1` (centres unmarked) [Compound E36, N-(4-(3-phenyl-3-azabicyclo[3.1.0]hexan-6-yl)thiazol-2-yl)-1-(pyridin-4-ylmethyl)-1H-pyrrole-2-carboxamide]: the IC50 in data set [1] (mean) was 0.284 µM; in data set [2] (mean), 5.07 µM; in data set [3] (mean), 0.89 µM; in data set [4] (mean), 1.71 µM. In data set [2] (setting [11]), the “24 hr Dox Inducible TNFaFLGluc 293FRT/TO: TNF/PD1” value came to 17.8. Also, in data set [4] (setting [11]), the “24 hr Dox Inducible IL2FLGluc 293FRT/TO: IL2/PD1” value came to 6. Also, the figures for the EC50 in data set [5] and in [6] were above 25 µM and 13.8 µM, respectively. The “Liver Microsome Stability (Multiple Species): Rat - % Remaining after 30 min w/NADPH” value in [7] was 1.49%. Moreover, the “Liver Microsome Stability (Multiple Species): Mouse - % Remaining after 30 min w/NADPH” value in data set [8] was 27.8%. Besides, the “Liver Microsome Stability (Multiple Species): Human - % Remaining after 30 min w/NADPH” value in data set [9] was 1.63%. Further, in [10], the “Liver Microsome Stability (Multiple Species): Monkey - % Remaining after 30 min w/NADPH” value was 0.83%.
For the compound `O=C(Nc1nc([C@H]2CCCN2)cs1)c1cccn1Cc1ccncc1` [Compound E17, (R)-1-(pyridin-4-ylmethyl)-N-(4-(pyrrolidin-2-yl)thiazol-2-yl)-1H-pyrrole-2-carboxamide], the IC50 in [1] (mean), in data set [2] (mean), in [3] (mean) and in [4] (mean) was above 25 µM throughout. Besides, the “24 hr Dox Inducible IL2FLGluc 293FRT/TO: IL2/PD1” value in [4] (setting [11]) came to 1. Also, the EC50 in data set [5] and in [6] was above 25 µM in each case. In addition, in data set [7], the “Liver Microsome Stability (Multiple Species): Rat - % Remaining after 30 min w/NADPH” value is listed as 27.8%. In data set [8], the “Liver Microsome Stability (Multiple Species): Mouse - % Remaining after 30 min w/NADPH” value is 35.8%. Besides, the “Liver Microsome Stability (Multiple Species): Human - % Remaining after 30 min w/NADPH” value in data set [9] was 35.6%. The “Liver Microsome Stability (Multiple Species): Monkey - % Remaining after 30 min w/NADPH” value in data set [10] was found to be 18.1%.
Take `CC(=O)Nc1ccc(N2CCC[C@@H]2c2csc(NC(=O)c3cccn3Cc3cc(F)nc(F)c3)n2)cc1` [Compound A122, (R)-N-(4-(1-(4-acetamidophenyl)pyrrolidin-2-yl)thiazol-2-yl)-1-((2,6-difluoropyridin-4-yl)methyl)-1H-pyrrole-2-carboxamide]: the IC50 in data set [1] amounted to 0.00788 µM; in data set [2], 0.191 µM; in data set [3] it was 0.0174 µM; in data set [4] it was 0.016 µM. Moreover, the “24 hr Dox Inducible TNFaFLGluc 293FRT/TO: TNF/PD1” value in data set [2] worked out at 24.2. In addition, the “24 hr Dox Inducible IL2FLGluc 293FRT/TO: IL2/PD1” value in data set [4] was determined as 2. In addition, the results for the EC50 in [5] and in [6] were 0.354 µM and 8.02 µM, respectively. For the same compound, the “Liver Microsome Stability (Multiple Species): Rat - % Remaining after 30 min w/NADPH” value in [7] is 18.8%. The “Liver Microsome Stability (Multiple Species): Mouse - % Remaining after 30 min w/NADPH” value in data set [8] is 17.1%. In addition, in data set [9], the “Liver Microsome Stability (Multiple Species): Human - % Remaining after 30 min w/NADPH” value is reported as 35.8%. In addition, the “Liver Microsome Stability (Multiple Species): Monkey - % Remaining after 30 min w/NADPH” value in data set [10] was determined as 27.3%.
As to `CC(C)n1cc(/C=C/c2csc(NC(=O)c3cccn3Cc3ccnc(F)c3)n2)nc1CO` [Compound B103, (E)-1-((2-fluoropyridin-4-yl)methyl)-N-(4-(2-(2-(hydroxymethyl)-1-isopropyl-1H-imidazol-4-yl)vinyl)thiazol-2-yl)-1H-pyrrole-2-carboxamide], the IC50 is 10.1 µM in data set [1], above 25 µM in data set [2], above 25 µM in data set [3] and above 25 µM in [4]. The “24 hr Dox Inducible TNFaFLGluc 293FRT/TO: TNF/PD1” value in data set [2] is above 2.49. Also, the “24 hr Dox Inducible IL2FLGluc 293FRT/TO: IL2/PD1” value in data set [4] is reported as above 2.5. For the same compound, the EC50 in data set [5] and in data set [6] was above 25 µM throughout. In addition, the “Liver Microsome Stability (Multiple Species): Rat - % Remaining after 30 min w/NADPH” value in data set [7] is given as 19.5%. Also, in [8], the “Liver Microsome Stability (Multiple Species): Mouse - % Remaining after 30 min w/NADPH” value was found to be 28.7%. Further, the “Liver Microsome Stability (Multiple Species): Human - % Remaining after 30 min w/NADPH” value in data set [9] was determined as 1.87%. In data set [10], the “Liver Microsome Stability (Multiple Species): Monkey - % Remaining after 30 min w/NADPH” value is 1.64%.
Consider `CCc1ccc(N2CCC[C@@H]2c2csc(NC(=O)c3cccn3CC3CCOCC3)n2)nc1` [Compound C85, (R)-N-(4-(1-(5-ethylpyridin-2-yl)pyrrolidin-2-yl)thiazol-2-yl)-1-((tetrahydro-2H-pyran-4-yl)methyl)-1H-pyrrole-2-carboxamide], for which the IC50 in data set [1] (mean) turned out to be 0.126 µM; in data set [2] (mean), 1.2 µM; in data set [3] (mean), 0.257 µM; in data set [4] (mean) it was 0.279 µM. Moreover, the “24 hr Dox Inducible TNFaFLGluc 293FRT/TO: TNF/PD1” value in data set [2] (setting [11]) is listed as 9.53. Also, the “24 hr Dox Inducible IL2FLGluc 293FRT/TO: IL2/PD1” value in data set [4] (setting [11]) turned out to be 2.2. Moreover, the values for the EC50 in data set [5] and in data set [6] were 6.12 µM and above 25 µM, respectively. Also, the “Liver Microsome Stability (Multiple Species): Rat - % Remaining after 30 min w/NADPH” value in data set [7] is 11.2%. Besides, the “Liver Microsome Stability (Multiple Species): Mouse - % Remaining after 30 min w/NADPH” value in data set [8] is given as 21.3%. Besides, the “Liver Microsome Stability (Multiple Species): Human - % Remaining after 30 min w/NADPH” value in data set [9] is recorded as 1.61%. The “Liver Microsome Stability (Multiple Species): Monkey - % Remaining after 30 min w/NADPH” value in data set [10] turned out to be 0.21%.
`CC1CCc2c(/C=C/c3csc(NC(=O)c4cccn4Cc4ccnc(F)c4)n3)ncn2C1` (centres unmarked) [Compound B98, (E)-1-((2-fluoropyridin-4-yl)methyl)-N-(4-(2-(6-methyl-5,6,7,8-tetrahydroimidazo[1,5-a]pyridin-1-yl)vinyl)thiazol-2-yl)-1H-pyrrole-2-carboxamide]: the IC50 in data set [1] was 0.0307 µM; in data set [2], above 25 µM; in data set [3], 1.59 µM; in [4], 2.29 µM. Also, the “24 hr Dox Inducible TNFaFLGluc 293FRT/TO: TNF/PD1” value in [2] is on record as above 814. Further, in data set [4], the “24 hr Dox Inducible IL2FLGluc 293FRT/TO: IL2/PD1” value is recorded as 74. Moreover, the EC50 in data set [5] and in [6] was above 25 µM in each case. The “Liver Microsome Stability (Multiple Species): Rat - % Remaining after 30 min w/NADPH” value in data set [7] was determined as 6.91%. For the same compound, the “Liver Microsome Stability (Multiple Species): Mouse - % Remaining after 30 min w/NADPH” value in data set [8] is on record as 6.81%. Also, the “Liver Microsome Stability (Multiple Species): Human - % Remaining after 30 min w/NADPH” value in [9] is 0.2%. Also, the “Liver Microsome Stability (Multiple Species): Monkey - % Remaining after 30 min w/NADPH” value in [10] worked out at 0.72%.
Consider `CC(C)n1cnc(/C=C/c2csc(NC(=O)c3cccn3Cc3cccnc3)n2)c1` [Compound B63, (E)-N-(4-(2-(1-isopropyl-1H-imidazol-4-yl)vinyl)thiazol-2-yl)-1-(pyridin-3-ylmethyl)-1H-pyrrole-2-carboxamide], for which the IC50 was above 20.9 µM in data set [1], above 25 µM in data set [2], above 25 µM in data set [3] and above 25 µM in [4]. Besides, the “24 hr Dox Inducible TNFaFLGluc 293FRT/TO: TNF/PD1” value in [2] is “<=>1.20”. Besides, in [4], the “24 hr Dox Inducible IL2FLGluc 293FRT/TO: IL2/PD1” value is on record as “<=>1.2”. Besides, the EC50 in data set [5] and in data set [6] was above 25 µM in each case. Also, in data set [7], the “Liver Microsome Stability (Multiple Species): Rat - % Remaining after 30 min w/NADPH” value was 1.14%. In addition, the “Liver Microsome Stability (Multiple Species): Mouse - % Remaining after 30 min w/NADPH” value in data set [8] came out at 0.49%. The “Liver Microsome Stability (Multiple Species): Human - % Remaining after 30 min w/NADPH” value in data set [9] was found to be 6.56%. Also, the “Liver Microsome Stability (Multiple Species): Monkey - % Remaining after 30 min w/NADPH” value in data set [10] amounted to 0.09%.

The values are drawn from patent publication US20230286973A1, “PROTEIN SECRETION INHIBITORS” (KEZAR LIFE SCIENCES, priority 2020, published 2023).
